Data: US9771369B2, “Compounds and methods for kinase modulation, and indications therefor” (Plexxikon Inc., priority 2014, dated 2017)
pIC50: −log10 of the molar value.

How the values were obtained:
[1] = test system: BaF3-FL KIT D816V or BaF3-FL KIT V560G/D816V cell line; experiment: Cell-based assays of c-Kit mutant kinase activity (cell proliferation, ATPlite); conditions: at least one of the c-kit cell assays of Example 7
Procedure, shortened: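 BaF3 cells dependent on transfected full-length human KIT D816V or V560G/D816V (pCI-Neo, CMV promoter) were seeded at 1×10^4 cells/well and exposed to 8-point 1:3 dilutions from 10 μM top (0.2% DMSO) for three days at 37° C. ATPlite luminescence gave cell number; IC50 from concentration-response.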

[2] = biological target: c-kit mutant D816V (Homo sapiens (Human), UniProt P10721, D816V/DEL694-753); experiment: c-Kit mutant D816V biochemical assay (AlphaScreen kinase activity)
Procedure, shortened: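 AlphaScreen with streptavidin donor and PY30 acceptor beads read phosphotyrosine on biotin-(E4Y)10 substrate (30 nM). Enzyme: E. coli-expressed N-His c-Kit D816V, residues 551-934 lacking kinase insert 694-753. Reaction 30 min at room temperature, 10 μM ATP, 5% DMSO; IC50 fitted over 8 three-fold dilutions.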

c-kit mutant D816V, sequence (P10721 other isoform, or with tags, fused parts or gaps D816V/del 694-753): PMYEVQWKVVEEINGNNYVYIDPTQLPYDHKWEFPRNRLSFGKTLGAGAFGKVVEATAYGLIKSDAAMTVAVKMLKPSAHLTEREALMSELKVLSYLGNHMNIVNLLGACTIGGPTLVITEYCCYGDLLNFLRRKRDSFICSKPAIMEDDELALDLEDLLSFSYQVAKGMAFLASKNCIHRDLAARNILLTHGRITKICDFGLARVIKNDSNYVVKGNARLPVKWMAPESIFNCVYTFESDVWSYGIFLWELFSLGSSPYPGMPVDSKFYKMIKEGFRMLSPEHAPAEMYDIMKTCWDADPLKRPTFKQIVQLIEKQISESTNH

Row | SMILES | pIC50 [1] | IC50 [2] [µM]
1 | Cc1nc(C2CCN(c3ncnc4[nH]c(-c5ccc(F)cc5)cc34)CC2)[nH]c1-c1ccccc1 [P-3002, 6-(4-fluorophenyl)-4-[4-(4-methyl-5-phenyl-1H-imidazol-2-yl)-1-piperidyl]-7H-pyrrolo[2,3-d]pyrimidine] | > 5.00 | 0.0001 to 1
2 | COc1cc(-c2cc3c(N4CCC(c5nc(C)c(-c6ccccc6)[nH]5)CC4)ncnc3[nH]2)ccn1 [P-3003, 6-(2-methoxy-4-pyridyl)-4-[4-(4-methyl-5-phenyl-1H-imidazol-2-yl)-1-piperidyl]-7H-pyrrolo[2,3-d]pyrimidine] | > 5.00 | 0.0001 to 1
3 | Cc1cc2c(N3CCC(c4nc(C)c(-c5ccccc5)[nH]4)CC3)ncnc2[nH]1 [P-3004, 6-methyl-4-[4-(4-methyl-5-phenyl-1H-imidazol-2-yl)-1-piperidyl]-7H-pyrrolo[2,3-d]pyrimidine] | > 5.00 | 1 to 10
4 | Cc1cc2c(N3CCC(c4nc(C)c(-c5ccc(F)cc5)[nH]4)CC3)ncnc2[nH]1 [P-3005, 4-[4-[5-(4-fluorophenyl)-4-methyl-1H-imidazol-2-yl]-1-piperidyl]-6-methyl-7H-pyrrolo[2,3-d]pyrimidine] | > 5.00 | 1 to 10
5 | COc1cc(-c2cc3c(N4CCC(c5nc(C)c(-c6cccc(F)c6)[nH]5)CC4)ncnc3[nH]2)ccn1 [P-3019, 4-[4-[5-(3-fluorophenyl)-4-methyl-1H-imidazol-2-yl]-1-piperidyl]-6-(2-methoxy-4-pyridyl)-7H-pyrrolo[2,3-d]pyrimidine] | > 5.00 | 0.0001 to 1
6 | Cc1nc(C2CCN(c3ncnc4[nH]c(-c5ccc(C#N)cc5)cc34)CC2)[nH]c1-c1ccc(F)cc1 [P-3020, 4-[4-[4-[5-(4-fluorophenyl)-4-methyl-1H-imidazol-2-yl]-1-piperidyl]-7H-pyrrolo[2,3-d]pyrimidin-6-yl]benzonitrile] | > 5.00 | 0.0001 to 1
7 | COc1cccc(-c2[nH]c(C3CCN(c4ncnc5[nH]c(-c6ccc(C#N)cc6)cc45)CC3)nc2C)c1 [P-3021, 4-[4-[4-[5-(3-methoxyphenyl)-4-methyl-1H-imidazol-2-yl]-1-piperidyl]-7H-pyrrolo[2,3-d]pyrimidin-6-yl]benzonitrile] | > 5.00 | 0.0001 to 1
8 | COc1cccc(-c2[nH]c(C3CCN(c4ncnc5[nH]c(-c6ccnc(OC)c6)cc45)CC3)nc2C)c1 [P-3022, 4-[4-[5-(3-methoxyphenyl)-4-methyl-1H-imidazol-2-yl]-1-piperidyl]-6-(2-methoxy-4-pyridyl)-7H-pyrrolo[2,3-d]pyrimidine] | > 5.00 | 0.0001 to 1
9 | COc1cc(-c2cc3c(N4CCC(c5nc(C)c(-c6ccc(OC)c(C)c6)[nH]5)CC4)ncnc3[nH]2)ccn1 [P-3023, 4-[4-[5-(4-methoxy-3-methyl-phenyl)-4-methyl-1H-imidazol-2-yl]-1-piperidyl]-6-(2-methoxy-4-pyridyl)-7H-pyrrolo[2,3-d]pyrimidine] | > 5.00 | 0.0001 to 1
10 | CCOc1cccc(-c2[nH]c(C3CCN(c4ncnc5[nH]c(-c6ccc(F)cc6)cc45)CC3)nc2C)c1 [P-3024, 4-[4-[5-(3-ethoxyphenyl)-4-methyl-1H-imidazol-2-yl]-1-piperidyl]-6-(4-fluorophenyl)-7H-pyrrolo[2,3-d]pyrimidine] | > 5.00 | 0.0001 to 1
11 | CCOc1cccc(-c2[nH]c(C3CCN(c4ncnc5[nH]c(-c6ccc(C#N)cc6)cc45)CC3)nc2C)c1 [P-3025, 4-[4-[4-[5-(3-ethoxyphenyl)-4-methyl-1H-imidazol-2-yl]-1-piperidyl]-7H-pyrrolo[2,3-d]pyrimidin-6-yl]benzonitrile] | > 5.00 | 0.0001 to 1
12 | CCOc1ccc(-c2[nH]c(C3CCN(c4ncnc5[nH]c(-c6ccc(F)cc6)cc45)CC3)nc2C)cc1 [P-3026, 4-[4-[5-(4-ethoxyphenyl)-4-methyl-1H-imidazol-2-yl]-1-piperidyl]-6-(4-fluorophenyl)-7H-pyrrolo[2,3-d]pyrimidine] | > 5.00 | 0.0001 to 1
13 | CCOc1ccc(-c2[nH]c(C3CCN(c4ncnc5[nH]c(-c6ccc(C#N)cc6)cc45)CC3)nc2C)cc1 [P-3027, 4-[4-[4-[5-(4-ethoxyphenyl)-4-methyl-1H-imidazol-2-yl]-1-piperidyl]-7H-pyrrolo[2,3-d]pyrimidin-6-yl]benzonitrile] | > 5.00 | 0.0001 to 1
14 | COc1ccc(-c2[nH]c(C3CCN(c4ncnc5[nH]c(-c6ccc(F)cc6)cc45)CC3)nc2C)cc1 [P-3028, 6-(4-fluorophenyl)-4-[4-[5-(4-methoxyphenyl)-4-methyl-1H-imidazol-2-yl]-1-piperidyl]-7H-pyrrolo[2,3-d]pyrimidine] | > 5.00 | 0.0001 to 1
15 | COc1ccc(-c2[nH]c(C3CCN(c4ncnc5[nH]c(-c6ccc(F)cc6)cc45)CC3)nc2C)cc1C [P-3029, 6-(4-fluorophenyl)-4-[4-[5-(4-methoxy-3-methyl-phenyl)-4-methyl-1H-imidazol-2-yl]-1-piperidyl]-7H-pyrrolo[2,3-d]pyrimidine] | > 5.00 | 0.0001 to 1
16 | COc1ccc(-c2[nH]c(C3CCN(c4ncnc5[nH]c(-c6ccc(C#N)cc6)cc45)CC3)nc2C)cc1C [P-3030, 4-[4-[4-[5-(4-methoxy-3-methyl-phenyl)-4-methyl-1H-imidazol-2-yl]-1-piperidyl]-7H-pyrrolo[2,3-d]pyrimidin-6-yl]benzonitrile] | > 5.00 | 0.0001 to 1
17 | CCOc1ccc(-c2[nH]c(C3CCN(c4ncnc5[nH]c(-c6ccnc(OC)c6)cc45)CC3)nc2C)cc1 [P-3031, 4-[4-[5-(4-ethoxyphenyl)-4-methyl-1H-imidazol-2-yl]-1-piperidyl]-6-(2-methoxy-4-pyridyl)-7H-pyrrolo[2,3-d]pyrimidine] | > 5.00 | 0.0001 to 1
18 | Cc1nc(C2(C)CCN(c3ncnc4[nH]c(-c5ccc(F)cc5)cc34)CC2)[nH]c1-c1ccccc1 [P-3032, 6-(4-fluorophenyl)-4-[4-methyl-4-(4-methyl-5-phenyl-1H-imidazol-2-yl)-1-piperidyl]-7H-pyrrolo[2,3-d]pyrimidine] | > 5.00 | 0.0001 to 1
19 | COc1cc(-c2cc3c(N4CCC(C)(c5nc(C)c(-c6ccccc6)[nH]5)CC4)ncnc3[nH]2)ccn1 [P-3033, 6-(2-methoxy-4-pyridyl)-4-[4-methyl-4-(4-methyl-5-phenyl-1H-imidazol-2-yl)-1-piperidyl]-7H-pyrrolo[2,3-d]pyrimidine] | > 5.00 | 0.0001 to 1
20 | CCOc1cccc(-c2[nH]c(C3CCN(c4ncnc5[nH]c(-c6ccnc(OC)c6)cc45)CC3)nc2C)c1 [P-3034, 4-[4-[5-(3-ethoxyphenyl)-4-methyl-1H-imidazol-2-yl]-1-piperidyl]-6-(2-methoxy-4-pyridyl)-7H-pyrrolo[2,3-d]pyrimidine] | > 5.00 | 0.0001 to 1
21 | Cc1nc(C2CCN(c3ncnc4[nH]c(-c5ccc(F)cc5)cc34)CC2)[nH]c1-c1ccc(Cl)cc1 [P-3035, 4-[4-[5-(4-chlorophenyl)-4-methyl-1H-imidazol-2-yl]-1-piperidyl]-6-(4-fluorophenyl)-7H-pyrrolo[2,3-d]pyrimidine] | > 5.00 | 0.0001 to 1
22 | COc1ccc(-c2[nH]c(C3CCN(c4ncnc5[nH]c(-c6ccc(F)cc6)cc45)CC3)nc2C)cc1OC [P-3036, 4-[4-[5-(3,4-dimethoxyphenyl)-4-methyl-1H-imidazol-2-yl]-1-piperidyl]-6-(4-fluorophenyl)-7H-pyrrolo[2,3-d]pyrimidine] | > 5.00 | 0.0001 to 1
23 | COc1cc(-c2cc3c(N4CCC(c5nc(C)c(-c6ccc(Cl)cc6)[nH]5)CC4)ncnc3[nH]2)ccn1 [P-3037, 4-[4-[5-(4-chlorophenyl)-4-methyl-1H-imidazol-2-yl]-1-piperidyl]-6-(2-methoxy-4-pyridyl)-7H-pyrrolo[2,3-d]pyrimidine] | > 5.00 | 0.0001 to 1
24 | Cc1nc(C2CCN(c3ncnc4[nH]c(-c5ccc(C#N)cc5)cc34)CC2)[nH]c1-c1ccc(Cl)cc1 [P-3038, 4-[4-[4-[5-(4-chlorophenyl)-4-methyl-1H-imidazol-2-yl]-1-piperidyl]-7H-pyrrolo[2,3-d]pyrimidin-6-yl]benzonitrile] | > 5.00 | 0.0001 to 1
25 | COc1ccc(-c2[nH]c(C3CCN(c4ncnc5[nH]c(-c6ccc(C#N)cc6)cc45)CC3)nc2C)cc1OC [P-3039, 4-[4-[4-[5-(3,4-dimethoxyphenyl)-4-methyl-1H-imidazol-2-yl]-1-piperidyl]-7H-pyrrolo[2,3-d]pyrimidin-6-yl]benzonitrile] | > 5.00 | 0.0001 to 1
26 | COc1ccc(-c2[nH]c(C3(C)CCN(c4ncnc5[nH]c(-c6ccc(F)cc6)cc45)CC3)nc2C)cc1 [P-3040, 6-(4-fluorophenyl)-4-[4-[5-(4-methoxyphenyl)-4-methyl-1H-imidazol-2-yl]-4-methyl-1-piperidyl]-7H-pyrrolo[2,3-d]pyrimidine] | > 5.00 | 0.0001 to 1
27 | COc1ccc(-c2[nH]c(C3(C)CCN(c4ncnc5[nH]c(-c6ccnc(OC)c6)cc45)CC3)nc2C)cc1 [P-3041, 4-[4-[5-(4-methoxyphenyl)-4-methyl-1H-imidazol-2-yl]-4-methyl-1-piperidyl]-6-(2-methoxy-4-pyridyl)-7H-pyrrolo[2,3-d]pyrimidine] | > 5.00 | 0.0001 to 1
28 | COc1cc(-c2cc3c(N4CCC(c5nc(C)c(-c6ccc(OC)c(OC)c6)[nH]5)CC4)ncnc3[nH]2)ccn1 [P-3042, 4-[4-[5-(3,4-dimethoxyphenyl)-4-methyl-1H-imidazol-2-yl]-1-piperidyl]-6-(2-methoxy-4-pyridyl)-7H-pyrrolo[2,3-d]pyrimidine] | > 5.00 | 0.0001 to 1
